Laboratory results: PMC9785925, “Solubility and Thermal Stability of Thermotoga maritima MreB” (International Journal of Molecular Sciences, 2022)

What was measured:
Assay type in all cases: binding
Tm-MreB [1] = biological target: T1, Tm-MreB (Thermotoga maritima, UniProt Q9WZ57); test: competition with TNP-ATP fluorescence, Langmuir single-site fit; conditions: salt-free (4 mM TRIS-HCl, 0.1 mM CaCl2, pH 7.5), 20 µM protein, 1 µM TNP-ATP; competitive; unreliable (text and figure legend disagree)
T1 construct: recombinant in E. coli ArcticExpress (DE3), Ni-NTA purified, His-tag removed with PreScission protease; native purification
T1 sequence (Q9WZ57 1-336): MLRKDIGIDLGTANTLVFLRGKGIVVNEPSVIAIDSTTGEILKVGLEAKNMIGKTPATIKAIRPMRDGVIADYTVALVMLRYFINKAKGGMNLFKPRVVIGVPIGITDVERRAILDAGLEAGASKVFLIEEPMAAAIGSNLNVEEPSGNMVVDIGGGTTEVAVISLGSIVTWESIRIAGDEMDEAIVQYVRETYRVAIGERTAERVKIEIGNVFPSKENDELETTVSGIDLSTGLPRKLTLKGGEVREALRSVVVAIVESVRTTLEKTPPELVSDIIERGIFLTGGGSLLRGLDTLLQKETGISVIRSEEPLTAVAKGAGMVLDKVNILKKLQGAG
Text: competition with TNP-ATP fluorescence, Langmuir single-site fit on Tm-MreB | we were able to determine the affinity of ATP for Tm-MreB

Tm-MreB [2] = biological target: T1, Tm-MreB; test: thermal denaturation, tryptophan fluorescence; conditions: 2 mM ATP, salt-free (4 mM TRIS-HCl, 0.1 mM CaCl2, pH 7.5); printed as 90 °C≤
Text: thermal denaturation, tryptophan fluorescence on Tm-MreB

Tm-MreB [3] = biological target: T1, Tm-MreB; test: TNP-ATP fluorescence titration, Hill fit

affinity (Tm-MreB [1])	This Work (Tryptophan Signal) (Tm-MreB [2]) [°C]	Structure (SMILES)	Kd (Tm-MreB [3]) [µM]
~ 2 µM	> 90	Nc1ncnc2c1ncn2[C@@H]1O[C@H](COP(=O)(O)OP(=O)(O)OP(=O)(O)O)[C@@H](O)[C@H]1O [ATP]	–
–	–	Nc1ncnc2c1ncn2[C@@H]1O[C@H](COP(=O)(O)OP(=O)(O)OP(=O)(O)O)[C@H]2OC3(O[C@H]21)C([N+](=O)[O-])=CC(=[N+]([O-])[O-])C=C3[N+](=O)[O-] (stereo partly drawn) [TNP-ATP]	3.69 ± 0.04
